Data from patent US6926892B2, “Protecting plants from oomycete pathogens by treatment with compositions containing serratamolide and oocydin a from Serratia marcescens” (HMV Corporation, priority 2000, dated 2005).
Converted amounts (≈) assume the structure as drawn.

Assays:
Oomycetes [1] = conditions: from Strobel et al. 1999 / U.S. Ser. No. 09/858,871; cited from earlier work
Phytophthora capsici = assay: Minimum inhibitory concentration in potato dextrose broth, 24-well plate; type: cell-based; conditions: 3 days, MIC = concentration needed to effect a 10% reduction in growth (OD 660 nm)
Experimental: (§1) 900 μl of potato dextrose broth was placed into the wells of a sterile 24-well culture plate. Serratamolide (in methanol) was added to the wells in concentrations of 0, 3.3, 10, 33 and 100 μg/ml. 20 μl methanol was added to one row to serve as a control. Fungal cultures to be tested were grown on PDA plates for three to five days. Pieces of agar containing the cultures were transferred to sterile microfuge tubes containing 0.5 ml sterile distilled water and broken up using a sterile Teflon pestle. 100 μl of PD broth containing the mycelia was added to each well, and growth inhibition was monitored over 3 days. At the end of 3 days cultures were transferred to a ground glass homogenizer, gently broken up, diluted in distilled water and the optical density measured using a Spectronic 20 spectrophotometer at 660 nm. The minimum inhibitory concentration was determined as the concentration of serratamolide compound needed to effect a 10% reduction in growth.

Botrytis cinera = assay: as above; type: cell-based; conditions: 3 days, MIC = concentration needed to effect a 10% reduction in growth (OD 660 nm)
Experimental: as §1

Phytophtora parasitica = assay: as above; type: cell-based; conditions: 3 days, MIC = concentration needed to effect a 10% reduction in growth (OD 660 nm)
Experimental: as §1

Pythium ultimum = assay: as above; type: cell-based; conditions: 3 days, MIC = concentration needed to effect a 10% reduction in growth (OD 660 nm)
Experimental: as §1

Phytophthora cactorum = assay: as above; type: cell-based; conditions: 3 days, MIC = concentration needed to effect a 10% reduction in growth (OD 660 nm)
Experimental: as §1

Rhizoctonia solani = assay: as above; type: cell-based; conditions: 3 days, MIC = concentration needed to effect a 10% reduction in growth (OD 660 nm)
Experimental: as §1

Oomycetes [2] = assay: Minimum inhibitory concentration tests against a number of plant fungal pathogens (summary); type: cell-based; conditions: e.g., P. cactorum, P. capsici, P. ultimum
Experimental: as §1

SMILES | Activity against Oomycetes, MICs relative to metalaxyl (Oomycetes [1]) | Minimum inhibitory concentration (Phytophthora capsici) [µg/mL] | Minimum inhibitory concentration (Botrytis cinera) [µg/mL] | Minimum inhibitory concentration (Phytophtora parasitica) [µg/mL] | Minimum inhibitory concentration (Pythium ultimum) [µg/mL] | Minimum inhibitory concentration (Phytophthora cactorum) [µg/mL] | Minimum inhibitory concentration (Rhizoctonia solani) [µg/mL] | Spectrum of activity among plant pathogens tested (Oomycetes [2])
CC(=O)OC1CC(=O)O[C@H]2C[C@H](CC/C(Cl)=C\C/C=C\1C)O[C@H]2[C@@H](O)/C=C(\C)CC(=O)O (some centres unmarked) [oocydin A] | selective lethal activity against Oomycetes at MICs lower or similar to those noted for metalaxyl | – | – | – | – | – | – | –
CCCCCCC[C@@H]1CC(=O)N[C@@H](CO)C(=O)O[C@H](CCCCCCC)CC(=O)N[C@@H](CO)C(=O)O1 [serratamolide] | – | 10 (≈ 19.4 µM) | >100 | 6 (≈ 11.7 µM) | 6 (≈ 11.7 µM) | 60 (≈ 117 µM) | >100 | active against Oomycetes only
